The values below come from patent US20210121542A1, “COMPOSITION FOR […] OF PROTEIN TH[…] ORAL, SUBLINGUAL AND BUCCAL ROUTE” (Prime Bio, Inc., priority 2019, published 2021).

This assay concerns trypsin. Type of assay: in vitro ADME.

Turning to bovine serum albumin [BSA], the “% Relative Protection (compared with BSA + Trypsin)” value is 0%.
